Laboratory results: US6936602B1, “Benzazepine derivatives, process for the preparation of the same and uses thereof” (Takeda Chemical Industries, Ltd., priority 1999, dated 2005)

Legend:
[1] = system: HIV-1 BA-L; assay: Inhibitory effect on HIV-1 infection to MAGI-CCR5 cell (β-galactosidase blue cell count); format: cell-based; conditions: 100 μl medium containing 1.6 μM of Test Compound + 100 μl medium containing 300 PFU of HIV-1 BA-L; MAGI-CCR5 cells; 37° C. for 2 days
Procedure: (5) Inhibitory Effect on HIV-1 Infection to MAGI-CCR5 Cell
The plasmid where β-galactosidase gene was ligated downstream of HIV-1 LTR was introduced into CD4 positive HeLa cell, to which human CCR5 was further introduced to obtain transformant MAGI-CCR5.
By using said transformant MAGI-CCR5, a degree of HIV-1 infection was calculated using β-galactosidase activity (blue color due to decomposition of 5-bromo-4-chloro-3-indolyl-β-D-galactopyranoside) as an index. Specifically, MAGI-CCR5 cells were suspended in DMEM medium containing 10% serum to prepare 5×10^4 cells/ml suspension. To each well of 96 well plate was inoculated 200 μl of the suspension, and the cells were cultivated at 37° C. overnight. The medium was removed by means of suction, and to the residue was added 100 μl of the above medium containing 1.6 μM of Test Compound and 100 μl of the above medium containing 300 PFU of HIV-1 BA-L cells. The cells were cultivated at 37° C. for 2 days. The medium was removed by means of suction. To the residue was added 200 μl of a cell fixative (PBS containing 1% formaldehyde and 0.2% glutaraldehyde), and the mixture was allowed to stand at room temperature for 5 minutes and washed twice with PBS. To the mixture was added 100 μl of staining solution (PBS containing […] and 0.4 mg/ml X-gal), and the mixture was allowed to stand at 37° C. for 50 minutes and washed twice with PBS. The number of blue cells was counted by a microscope and defined as the number of cells infected with HIV-1. According to this method, inhibition rate of HIV-1 infection was determined.

[2] = biological target: T1, human CCR5 (Homo sapiens, UniProt P51681); assay: Evaluation of test compounds based on CCR5 antagonistic activity: inhibition of [125I]-RANTES binding to CCR5/CHO cells; conditions: Test Compound 1 μM, 100 pM [125I]-RANTES, room temperature for 40 minutes, read-out: Inhibitory Rate (%)
T1 construct: expressed in transfected cells
Procedure: Cloning of CCR5 gene was carried out by a PCR method from human spleen cDNA. With using 0.5 ng of spleen cDNA (Toyobo, QUICK-Clone cDNA) as template, PCR was performed in DNA Thermal Cycler 480 (Perkin-Elmer) (reaction conditions: 30 cycles of 95° C. for 1 minute, 60° C. for 1 minute, and 75° C. for 5 minutes) by adding each 25 pmol of primers of a primer set, • SEQ ID NO.: 1 described in Test Example (1) of WO 99/32100 [length of sequence: 34; type of sequence: nucleic acid; strandedness: single; topology: straight; kind of sequence: other nucleic acid synthetic DNA, and • SEQ ID NO.: 2 described in Test Example (1) of WO 99/32100 [length of sequence: 34; type of sequence: nucleic acid; strandedness: single; topology: straight; kind of sequence: other nucleic acid synthetic DNA which were designed referring to nucleotide sequence of CCR5 gene reported by Samson et. al. (Biochemistry, 35(11), 3362-3367 (1996)) and by using TaKaRa EX Taq (Takara Shuzo). The resultant PCR product was subjected to agarose gel electrophoresis to collect about 1.0 kb DNA fragment, which was subjected to Original TA Cloning Kit (Funakoshi) to carry out cloning of CCR5 gene. (2) Preparation of Plasmid for Expression of Human CCR5
The plasmid obtained in the above (1) was digested with restriction enzymes XbaI (Takara Shuzo) and BamHI (Takara Shuzo) and subjected to agarose gel electrophoresis to collect about 1.0 kb DNA fragment.
The DNA fragment was mixed with plasmid pcDNA3.1 (Funakoshi) for expression in animal cells, said plasmid being digested with XbaI and BamHI, and they were ligated with DNA Ligation Kit Ver.2 (Takara Shuzo). The resulting plasmid was subjected to transformation of competent cell of E. coli JM109 (Takara Shuzo) to obtain plasmid pCKR5.
CHO-K1 cells were grown in 750 ml of tissue culture flask (Becton Dickinson) using Ham's F12 medium (Nihon Pharmaceutical) containing 10% fetal calf serum (Life Tech Oriental) and taken off with 0.5 g/L trypsin-0.2 g/L EDTA (Life Tech Oriental). The cells were washed with PBS (Life Tech Oriental), centrifuged (1000 rpm, 5 minutes), and suspended in PBS. With using Gene Pulser (Bio-Rad Laboratories), DNA was introduced into the cells under the conditions shown below. That is, to the cuvette of 0.4 cm gap were added 8×10^6 cells and 10 μg of plasmid pCKR5 for expression of human CCR5, and electroporation was carried out under 0.25 kV of voltage and 960 μF of capacitance. The cells were transferred into Ham's F12 medium containing 10% fetal calf serum, and cultivated for 24 hours. The cells were again taken off and centrifuged, and suspended in Ham's F12 medium containing 10% fetal calf serum and 500 μg/ml of geneticin (Life Tech Oriental). The suspension was diluted to give 10^4 cells/ml of the suspension, which was inoculated on a 96 well plate (Becton Dickinson) to give geneticin resistant cells.
The resulting geneticin resistant cells were cultivated in 96 well plate (Becton Dickinson), and cells expressing CCR5 were selected from the geneticin resistant cells. That is, in assay buffer (Ham's F12 medium containing 0.5% BSA and 20 mM HEPES (Wako Pure Chemical, pH7.2)) to which was added 200 pM of [^125I]-RANTES (Amersham) as a ligand, a binding reaction was carried out at room temperature for 46 minutes, and the buffer was washed with cooled PBS. To the buffer was added 50 μl/well of 1M NaOH, and the mixture was stirred. Radioactivity was determined with a y-counter to select CCR5/CHO cells which specifically bind to the ligand.
The CCR5/CHO cells were inoculated on 96 well microplate (5×10^4 cells/well) and cultivated for 24 hours. The medium was removed by means of suction, and to each well was added an assay buffer containing Test Compound (1 μM) and then 100 pM of [^125I]-RANTES (Amersham) as a ligand. A binding assay was carried out at room temperature for 40 minutes, and an assay buffer was removed by means of suction. […]

T1 sequence (P51681 whole entry): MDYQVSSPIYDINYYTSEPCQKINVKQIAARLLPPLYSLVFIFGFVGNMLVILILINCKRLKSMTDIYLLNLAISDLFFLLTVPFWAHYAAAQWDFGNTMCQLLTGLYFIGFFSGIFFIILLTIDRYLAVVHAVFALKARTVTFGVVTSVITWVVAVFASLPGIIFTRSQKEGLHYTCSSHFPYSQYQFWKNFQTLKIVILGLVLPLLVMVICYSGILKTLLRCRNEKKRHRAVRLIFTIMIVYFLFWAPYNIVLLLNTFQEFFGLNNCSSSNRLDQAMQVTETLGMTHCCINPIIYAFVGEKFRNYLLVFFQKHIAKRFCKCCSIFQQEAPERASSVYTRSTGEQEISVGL

In the case of `CCCOCCOc1ccc(-c2ccc3c(c2)C=C(C(=O)Nc2ccc(CN(C)C4CCOCC4)cc2)CCN3CC)cc1` [Compound 17, 1-ethyl-N-[4-[[N-methyl-N-(tetrahydro-2H-pyran-4-yl)amino]methyl]phenyl]-7-[4-(2-propoxyethoxy)phenyl)-2,3-dihydro-1H-1-benzazepine-4-carboxamide], the “Inhibitation Rate (%)” value [1] is reported as 94%, the melting point is reported as 106 to 108 °C and the inhibition at 1 µM [2] is reported as 99%.

For `CC(C)OCCOc1ccc(-c2ccc3c(c2)C=C(C(=O)Nc2ccc(CN(C)C4CCOCC4)cc2)CCN3C=O)cc1` [Compound 14, 1-formyl-N-[4-[[N-methyl-N-(tetrahydro-2H-pyran-4-yl)amino]methyl]phenyl]-7-[4-(2-propoxy)ethoxyphenyl]-2,3-dihydro-1H-1-benzazepine-4-carboxamide], the “Inhibitation Rate (%)” value [1] was 91%, the melting point was 187 to 189 °C and the inhibition at 1 µM [2] was 96%.

With `CCOCCOc1ccc(-c2ccc3c(c2)C=C(C(=O)Nc2ccc(CN(C)C4CCOCC4)cc2)CCN3CC)cc1` [Compound 16, 7-[4-(2-ethoxyethoxy)phenyl]-1-ethyl-N-[4-[[N-methyl-N-(tetrahydro-2H-pyran-4-yl)amino]methyl]phenyl]-2,3-dihydro-1H-1-benzazepine-4-carboxamide] the “Inhibitation Rate (%)” value [1] was 94%, the melting point was 114.5 to 116.5 °C and the inhibition at 1 µM [2] was 96%.

For `CCOCCOc1ccc(-c2ccc3c(c2)C=C(C(=O)Nc2ccc(CN(C)C4CCOCC4)cc2)CCN3C=O)cc1` [Compound 1, 7-[4-(2-ethoxyethoxy)phenyl]-1-formyl-N-[4-[[N-methyl-N-(tetrahydro-2H-pyran-4-yl)amino]methyl]phenyl]-2,3-dihydro-1H-1-benzazepine-4-carboxamide], the “Inhibitation Rate (%)” value [1] was 85%, the melting point was 192 to 194 °C and the inhibition at 1 µM [2] was 93%.
